In patent EP4410314A1, “COMBINATION THERAPY COMPRISING ANTI-CD22 ANTIBODY-DRUG CONJUGATE AND IRAK1 INHIBITOR” (ADC Therapeutics SA, priority 2023, dated 2024):

What was measured:
KARPAS-299 = assay: In vitro cytotoxicity, KARPAS-299; type: cell-based, human; conditions: KARPAS-299 (ALCL), CD22-negative; mean ± SEM
Ramos xenograft = assay: SC Ramos xenograft; type: in vivo, mice
Excerpt: (§1) Ramos, WSU-DLCL2, and KARPAS-299 xenografts were established in 8- to 10-week-old female Fox Chase mice with severe combined immunodeficiency (Charles River Laboratories) by implanting 10^7 cells subcutaneously (SC) into their flanks. When group mean tumor volumes reached approximately 116 to 132 mm^3, mice were randomly allocated into groups to receive the test agent or vehicle. Each animal was euthanized when its tumor reached the end point volume or at the study end. The time to end point (TTE) for analysis was calculated for each mouse by the following equation: TTE (days) = ([log10(end point volume−intercept^(*)]/slope^(*)) [formula] where the * indicates the slope of the line obtained by linear regression of a log-transformed tumor growth data set.
(§2) The log-rank test was used to analyze the significance of differences in TTE between the 2 groups. For the disseminated xenografts model, 10^7 REH cells were inoculated intravenously (IV) into 5- to 8-week-old female NOG mice (Taconic Biosciences). Test compounds were administered IV 4 days after tumor cell inoculation. Individual mice were euthanized, and an autopsy was performed when hind leg paralysis (a sign of leukemia development) occurred and/or the body weight decreased ≥20%. The study was terminated on day 62. The log-rank test was used to determine the significance of the differences in overall survival.

B-cell lymphomas = conditions: read-out: Median IC50, 48 cell lines
PTCL-NOS = assay: In vitro cytotoxic activity, lymphoma cell line panel: PTCL-NOS; type: cell-based, human; conditions: 1 cell line, read-out: Median IC50
KARPAS-299 xenograft = assay: SC KARPAS-299 xenograft model (CD22-negative); type: in vivo, mice; conditions: single 1 mg/kg dose; end of the study (day 29)
Excerpt: as §1, §2

MCL = assay: In vitro cytotoxic activity, lymphoma cell line panel: MCL; type: cell-based, human; conditions: 10 cell lines, read-out: Median IC50
DO HH-2 = assay: In vitro cytotoxicity, DO HH-2; type: cell-based, human; conditions: DO HH-2 (FL), CD22-positive; mean ± SEM
MZL = assay: In vitro cytotoxic activity, lymphoma cell line panel: MZL; type: cell-based, human; conditions: 6 cell lines, read-out: Median IC50
CLL = assay: In vitro cytotoxic activity, lymphoma cell line panel: CLL; type: cell-based, human; conditions: 2 cell lines, read-out: Median IC50
NALM-6 = assay: In vitro cytotoxicity, NALM-6; type: cell-based, human; conditions: NALM-6 (B-ALL), CD22-positive; mean ± SEM
SUP-T1 = assay: In vitro cytotoxicity, SUP-T1; type: cell-based, human; conditions: SUP-T1 (T-LL), CD22-negative; mean ± SEM
REH cells = assay: Disseminated B-ALL-derived xenograft model (REH); type: in vivo, mice
Procedure: as §2

B cells = assay: B-cell depletion from circulation; type: in vivo; conditions: cynomolgus monkeys, after one ADCT-602 dose
CTCL = assay: In vitro cytotoxic activity, lymphoma cell line panel: CTCL; type: cell-based, human; conditions: 3 cell lines, read-out: Median IC50
ALCL = assay: In vitro cytotoxic activity, lymphoma cell line panel: ALCL; type: cell-based, human; conditions: 5 cell lines, read-out: Median IC50
T-cell lymphomas = assay: In vitro cytotoxic activity, lymphoma cell line panel: T-cell lymphomas; type: cell-based, human; conditions: 9 cell lines, read-out: Median IC50
[1] = test system: CD22-expressing Ramos cells; assay: Cell surface binding, internalization and LAMP-1 colocalization; type: cell-based, human
NAMALWA = assay: In vitro cytotoxicity, NAMALWA; type: cell-based, human; conditions: NAMALWA (BL), CD22-positive; mean ± SEM
GRANTA-519 = assay: In vitro cytotoxicity, GRANTA-519; type: cell-based, human; conditions: GRANTA-519 (MCL), CD22-positive; mean ± SEM
[2] = test system: Ramos, TMD8, and SU-DHL-4 cell lines; assay: In vitro cytotoxicity following pretreatment with chidamide; type: cell-based; conditions: pretreatment with chidamide (0.25 or 0.5 µM) for 7 days, then ADC for 5 days
Procedure: Chidamide (Selleckchem) was dissolved in dimethyl sulfoxide (DMSO) according to the manufacturer's instructions. Cells were treated with chidamide (0.25 or 0.5 µM) for 7 days at 37°C in a 5% carbon dioxide-gassed, humidified incubator. On day 3, cells were centrifuged, and fresh medium containing the corresponding concentrations of chidamide was added. The control group was treated with equal volumes of DMSO.
Cell viability was measured with the CellTiter 96 Aqueous One Solution Cell Proliferation Assay (Promega). Data were normalized to untreated control cells. The IC50 values were determined using GraphPad software (GraphPad). The mean and standard errors of 3 independent IC50 values were determined.

Ramos = assay: In vitro cytotoxicity, Ramos; type: cell-based, human; conditions: Ramos (BL), CD22-positive; mean ± SEM
Ramos cells = assay: DNA interstrand crosslinks, single cell gel electrophoresis (Comet) assay, Ramos; type: cell-based, human; conditions: 2-hour exposure
Procedure: Quantification of in vitro DNA interstrand crosslinks (ICLs) was performed using the single cell gel electrophoresis (Comet) assay.
DNA ICLs were measured using a modification of the single-cell gel electrophoresis (Comet) assay, and crosslinking was expressed as the percentage decrease in Olive tail moment (OTM) versus control irradiated cells. […] Immediately after the drug incubation period, a low level of ICLs (3%) was observed, which increased over time to near peak levels (≈50%) at 12 hours and persisted up to 48 hours. […] In this cell line, SG3199 produced a high level of ICL (≈50%), similar to that observed in the Ramos cell line.

ABC-DLBCL = assay: In vitro cytotoxic activity, lymphoma cell line panel: ABC-DLBCL; type: cell-based, human; conditions: 6 cell lines, read-out: Median IC50
GCB-DLBCL = assay: In vitro cytotoxic activity, lymphoma cell line panel: GCB-DLBCL; type: cell-based, human; conditions: 20 cell lines, read-out: Median IC50
HL = assay: In vitro cytotoxic activity, lymphoma cell line panel: HL; type: cell-based, human; conditions: 3 cell lines, read-out: Median IC50
Daudi = assay: In vitro cytotoxicity, Daudi; type: cell-based, human; conditions: Daudi (BL), CD22-positive; mean ± SEM
[3] = single dose 1 mg/kg, end of the study (day 60)

## ADCT-602: novel ADC targeting CD22 that consists of humanized monoclonal antibody hLL2-C220, sitespecifically conjugated to the pyrrolobenzodiazepine (PBD) dimer-based payload tesirine
KARPAS-299
  IC50: 51.7 ± 3.86 nM
Ramos xenograft; [3]
  CRs: 10/10
  tumor-free survivors: 9/10
Ramos xenograft; single dose at 0.3 and 1 mg/kg
  antitumor activity compared with the vehicle and the isotype control ADC: specific and dose-dependent antitumor activity
B-cell lymphomas
  IC50: 0.2 nM
PTCL-NOS
  IC50: 0.7 nM
KARPAS-299 xenograft
  antitumor activity compared with the vehicle group: no significant antitumor activity
MCL
  IC50: 0.375 nM
DO HH-2
  IC50: 0.06 ± 0.009 nM
MZL
  IC50: 0.0625 nM
CLL
  IC50: 0.23 nM
NALM-6
  IC50: 0.11 ± 0.018 nM
SUP-T1
  IC50: 9.34 ± 1.02 nM
REH cells; single 1.3 mg/kg versus 0.45 mg/kg, every 4 days, for 3 times [Q4D×3]
  survival time, single dose versus equivalent fractionated dose: comparable survival time
REH cells; single dose at 0.45 mg/kg and 1.3 mg/kg IV
  survival compared with the vehicle and the isotype control ADC: dose-dependent extension of survival
B cells
  depletion of B cells from circulation: efficiently depleted
CTCL
  IC50: 1.75 nM
ALCL
  IC50: 2.85 nM
T-cell lymphomas
  IC50: 1.85 nM
[1]; 37°C, 1- and 2-hour time points
  internalization and trafficking to lysosomes: cellular internalization and colocalization of ADCT-602 with LAMP-1
[1]; 24 hours
  residual ADC staining: no residual ADC staining
[1]; T 0 hours
  cell surface (membrane) binding: prominent cell surface binding
NAMALWA
  IC50: 2.27 ± 0.052 nM
GRANTA-519
  IC50: 0.02 ± 0.0005 nM
[2]
  improvement of ADCT-602 IC50 compared with cells pretreated with DMSO: up to 2.5 fold
Ramos
  IC50: 0.06 ± 0.021 nM
Ramos cells; immediately after the drug incubation period
  DNA ICLs, percentage decrease in Olive tail moment (OTM) versus control irradiated cells: 3%
Ramos cells; peak / near peak level at 12 hours
  DNA ICLs, percentage decrease in Olive tail moment (OTM) versus control irradiated cells: ≈ 50%
ABC-DLBCL
  IC50: 0.395 nM
GCB-DLBCL
  IC50: 0.1 nM
HL
  IC50: 4.5 nM
Daudi
  IC50: 0.07 ± 0.021 nM
